Where no end group is shown, it is not given here.

This is an account of results in US7101701B2, “Method to reduce contamination when culturing mycobacteria” (The Trustees of the University of Pennsylvania, priority 2004, dated 2006).

The subject of one series is chymotrypsin. To be noted: Pep5 variant; cited from earlier work.
The next series relates to at least some strains. To be noted: when used with at least some strains; cited from earlier work.
The subject of series [1] is bacterial contamination and MAP in processed fecal field samples (Annabelle, Heidi, Meck 42). Description: MGIT 960 liquid culture of processed fecal field samples, time to positive / contamination. The class given is cell-based, Mycobacterium avium subsp. paratuberculosis. To be noted: for TTP (days): 50000 ug nisin per tube, 1 tube only. Here is the method: (§1) Middlebrook 7H9 broth was prepared by suspending 4.7 grams Middlebrook 7H9 dehydrated base (BD Diagnostics, Sparks, Md.) in 900 ml of double distilled water. The solution was autoclaved for 20 minutes at 121° C., and stored in a refrigerator when not in use. A 50% egg yolk suspension was stored in a refrigerator. Nisin was prepared in 1–2 M hydrochloride acid (HCl) at a concentration of 100 mg/ml. ANV cocktail (5 mg/ml) was prepared from the individual antibiotics and stored frozen.
Vials of processed fecal field samples, Annabelle, Heide and Meck 42, stored at −70° C., were thawed in a 37° C. incubator. The samples had been previously processed according to the Cornell modified decontamination and inoculation method as described in Whitlock et al., supra (2000).
(§2) Cultures were set up in MGIT™ tubes (BD Diagnostics, Sparks, Md.). MGIT™ tubes contain an oxygen-sensitive fluorescent compound, tris 4,7-diphenyl-1,10-phenanthroline ruthenium chloride pentahydrate, in silicone base that detects growth by increased fluorescence as oxygen consumption in the culture increases. The tubes were barcoded for scanning in a BACTEC™ MGIT™ 960 machine (BD Diagnostics, Sparks, Md.).
(§3) Vials of nisin and ANV, stored in a standard freezer, were thawed in a 37° C. incubator. Egg yolk, OADC or OACC (BD Diagnostics, Sparks, Md.) and 7H9, stored in a standard refrigerator, were warmed in a 37° C. incubator. Using sterile pipet tips (autoclaved), components were aliquoted into barcoded MGIT™ culture tubes as follows: OADC or OACC (800 μl); 50% egg yolk suspension (600 μl except for […] control tubes having 60 μl. The volume difference in volume made up by 7H9); 7H9; 5 mg/ml ANV (30 μl); 100 mg/ml nisin (quantity determined by desired final concentration); and organism sample (100 μl). 7H9 was added at the quantity needed to bring the final volume of each tube to 8.9 ml, so that the tubes had identical head space. After all components were added, tubes were tightly capped and inverted three times. The tubes were placed in the MGIT™ 960 machine and scanned in after they registered as unknown at the next hourly reading.
(§4) The experiment was designed to test a MAP isolate (ATCC# 700535) at three different concentrations (MAP 10^−3, MAP 10^−4 and MAP 10^−5). Three field samples (processed fecal matter) named Annabelle, Heidi and Meck 42 were also tested in the experiment. Seven conditions were tested for effectiveness against bacterial contamination in mycobacterial cultures: ANV alone, five different nisin concentrations and HCl, the diluent for nisin. Generally, each sample was tested in triplicate for each solution. There were eleven additional control tubes; two tubes for additives (5 μl nisin and 30 μl ANV) and 9 tubes for weekly performance (no ANV and 60 μl 50% egg yolk suspension; WP). The WP tubes were used to monitor test performance and reproducibility over time.

For a further series, the system named is Acid Fast bacillus. As to the kind of experiment: Acid fast smears (Ziehl-Neelson) of culture tubes. It counts as cell-based, Mycobacterium avium subsp. paratuberculosis. To be noted: for Acid Fast Results or CFUs: per replicate tube. From the text: One of the most distinctive properties of Mycobacteria is the impermeability of their lipid-rich cell walls to various basic dyes, unless the dye is combined with phenol. Once stained, the cells resist decolorization with acidified organic solvents, and are, therefore called “acid fast.” Acid fast staining methods include, but are not limited to, Ziehl-Neelsen (ZN) carbolfuchsin staining, fluorochrome staining (auromine O and rhodamine B) and Kinyoun carbolfuchsin staining.

The subject of the next series is MAP ATCC# 700535. As to the kind of experiment: MGIT 960 liquid culture of MAP isolate dilutions, time to positive. It counts as cell-based, Mycobacterium avium subsp. paratuberculosis. Particulars: for TTP (days): 600 ul EY. Here is the method:
as §1
Dilutions of MAP ATCC# 700535 were prepared as follows. A working stock vial, at 10^−2, stored at −70° C. freezer, was thawed in a 37° C. incubator. Using individually-wrapped, sterile glass pipettes, a serial dilution series was made in sterile 15 ml conical tubes. One (1) ml of MAP at 10^−2 was diluted into 9 ml of 7H9 medium and mixed well to yield a 10^−3 solution. One ml of this solution was diluted into another tube of 9 ml 7H9 to yield a 10^−4 solution. This process was repeated again to produce a 10^−5 solution. The serial dilutions were plated on HEYM flasks, 100 ul dilution per flask, and placed in an incubator.
as §2, §3, §4

Where [2] appears, read: Meck and Annabelle samples, tubes 4F and 7F (10000 ug nisin).

In the case of “A19C Pep5: Pep5 variant from the literature (TAGPAIRASVKQCQKTLKCTRLFTVSCKGKNGCK; also: lantibiotic Pep5: thioether rings and dehydro residues not placed; UniProt P19578 27-60, looked up, variant A19C)”, the stability to chymotrypsin entry in the series with chymotrypsin is recorded as “more stable to chymotrypsin”.
“L6V gallidermin: gallidermin variant from the literature (IASKFVCTPGCAKTGSFNSYCC; cysteine pairing not given here; also: lantibiotic lanthionine modifications not placed; UniProt P21838 31-52, looked up, variant L6V)”: the antibacterial activity result in the series with at least some strains is “enhanced antibacterial activity”.
As for “nisin (ITSISLCTPGCKTGALMGCNMKTATCHCSIHVSK; cysteine pairing not given here; also: lantibiotic lanthionine modifications not placed; UniProt P13068 24-57, looked up) [34 amino acid pentacyclic class A lantibiotic peptide produced by Lactococcus lactis; stock 100 mg/ml in HCl]”, in series [1] (600 ul 50% egg yolk suspension, nisin approximately 5000 to 10,000 ug per tube), the “time to recover TNTC animals” value is recorded as less than 15 days. In addition, the “TTP (days)” value was 43.7 (1 tube only) days in series [1] (Annabelle field sample); “No gu's (1 tube only)” in series [1] (Heidi field sample); 54.4 (1 tube only) days in series [1] (Meck 42 field sample); 19.3–20.6–No gu's in the series with MAP ATCC# 700535 (MAP 10^−4, 500 ug nisin per tube, three replicate tubes); “No gu's” in the series with MAP ATCC# 700535 (MAP 10^−4, 50000 ug nisin per tube); 32.4–38.7–2 gu's in the series on MAP ATCC# 700535 (MAP 10^−5, 5000 ug nisin per tube, three replicate tubes). Besides, the “time at which tubes flagged positive” value in series [1] (setting [2]) was 14 to 17 days. Moreover, the “control of non-mycobacterial contamination and MAP growth” value in series [1] (field samples, particularly at 10,000 ug nisin) is reported as “controlled non-mycobacterial contamination with little retardation of MAP growth”. Moreover, the “Acid Fast Results or CFUs” value is on record as 4+Pos–4+Pos–ND in the series with Acid Fast bacillus (Annabelle field sample, 10000 ug nisin per tube); 4+Pos–4+Pos–ND in the series with Acid Fast bacillus (Heidi field sample, 500 ug nisin per tube); 4+Pos–4+Pos–ND in the series with Acid Fast bacillus (Heidi field sample, 1000 ug nisin per tube); 4+Pos–3+Pos–ND with Acid Fast bacillus (Heidi field sample, 5000 ug nisin per tube); 4+Pos–ND–ND in the series with Acid Fast bacillus (Heidi field sample, 10000 ug nisin per tube); 4+Pos–4+Pos–ND in the series on Acid Fast bacillus (MAP 10^−3, 10000 ug nisin per tube). In addition, the “Acid Fast Results or CFUs” value in the series on Acid Fast bacillus (Meck 42 field sample, 1000 ug nisin per tube) is “ND–ND–4+Pos”; in the series on Acid Fast bacillus (Meck 42 field sample, 5000 ug nisin per tube), “BC–4+Pos–4+Pos”; in the series with Acid Fast bacillus (Meck 42 field sample, 10000 ug nisin per tube) it was “ND–4+Pos–4+Pos”. In addition, the “AFB (acid-fast bacilli smears)” value in the series with Acid Fast bacillus (setting [2]) was 4+Positive. Moreover, in the series with MAP ATCC# 700535 (nisin at 10,000 ug/tube, tubes 3A and 3F (MAP 10^−5)), the “reduction of TTP compared to 30 ul ANV” value is reported as “approximately 30%”. For the same substance, the “inhibitory effect on MAP growth” value with MAP ATCC# 700535 (nisin with 600 ul EY) is given as “little inhibitory effect on MAP growth”.
